According to ChEMBL document CHEMBL1201862, “PubChem BioAssay data set” (2004):
Activity calls are given as the source filed them.

Experiments:
[1] = molecular target: Voltage-dependent T-type calcium channel subunit alpha-1H (Homo sapiens, UniProt O95180); type: functional;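 also: channel activity triggered by adding a high calcium stimulation buffer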
[2] = growth suppression of PTEN-null colon cells, dose response, cell-based, HCT116 PTEN knockout (AID 1047); type: functional;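 also: HCT116 colon tumor cells with PTEN knocked out; cells exposed to compound for 60 hours before readout; potency for loss of cell viability measured by luminescence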
[3] = growth suppression of beta-catenin-knockout colon cells, dose response, cell-based, HCT116, human colon tumor (AID 1045); type: functional;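 also: HCT116 colon tumor cells with beta catenin knocked out; cells exposed to compound for 60 hours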
[4] = inhibitors of SNCA 5'UTR-driven translation, confirmation, luminescence, H4 neuroglioblastoma cells, dose confirmation (AID 2454); type: functional, cell-based;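 also: H4 neuroglioblastoma cells carrying an alpha-synuclein 5'UTR luciferase reporter; potency for inhibition of the luciferase signal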
cells [5] = type: functional, cell-based
BJ [6] = assay: cytotoxicity toward BJ-TERT-LT-ST fibroblasts, dose response, cell-based, RAS-independent, luminescence (AID 1935); type: functional; conditions: Homo sapiens;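 also: BJ fibroblasts immortalized with TERT plus LT and ST oncogenes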
BJ [7] = assay: cells; type: functional, cell-based; conditions: Homo sapiens
[8] = cytotoxicity in HEK-293T cells, dose response, cytotoxicity control for TCR NF-kB inhibitor project, luminescence, T-cell screen hits (AID 489026); type: functional, cell-based;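 also: cells exposed to compound about 14 hours before the viability readout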
BJ [9] = assay: cytotoxicity toward Ras-transformed BJeLR fibroblasts, dose response, cell-based, alamar blue fluorescence, cherrypicked samples (AID 2631); type: functional; conditions: Homo sapiens;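 also: confirmatory dose-response assay in RAS-dependent BJ fibroblasts engineered with TERT, LT and ST, with cytotoxicity read by fluorescence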
[10] = cytotoxicity toward DRD oncogenic fibroblasts, dose response, cell-based, non-viral oncogenic, luminescence (AID 1934); type: functional; conditions: Homo sapiens
[11] = inhibitors of firefly luciferase expression or activity, dose response, H4 neuroglioma cells, luminescence (AID 1990); type: functional, cell-based
[12] = inhibitors of SNCA 5'UTR-driven reporter translation, confirmation, H4 neuroglioma cells, luminescence (AID 1988); type: functional, cell-based
[13] = luciferase reporter signal reduction – luminescence, H4-C neuroglioblastoma cells, dose response (AID 2458); type: functional, cell-based;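 also: H4 neuroglioblastoma cells stably carrying a luciferase reporter gene fusion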
BJ [14] = assay: cytotoxicity toward BJ-TERT fibroblasts, dose response, cell-based, RAS-independent, luminescence (AID 1933); type: functional; conditions: Homo sapiens
cells [15] = type: functional
[16] = Vero E6 cell cytotoxicity, dose response, cytotoxicity control for non-replicating M. tuberculosis project, secondary assay (AID 492998); type: functional, VeroE6; conditions: Vero C1008
[17] = HepG2 cell cytotoxicity, dose response, cytotoxicity control for non-replicating M. tuberculosis project (AID 489018); type: functional; conditions: Mycobacterium tuberculosis
[18] = microbe, parasite or virus in culture; type: functional; conditions: Mycobacterium tuberculosis
[19] = THP-1 cell cytotoxicity, dose response, cytotoxicity control for non-replicating M. tuberculosis project (AID 489025); type: functional
[20] = molecular target: Cyclin-dependent kinase 5/CDK5 activator 1 (Homo sapiens, UniProt Q00535); assay: CDK5/p35 kinase inhibitors, dose response, biochemical, cherry-picked samples, set 2 (AID 504545)
[21] = molecular target: FAD-linked sulfhydryl oxidase ALR (Homo sapiens, UniProt P55789); assay: inhibitors of human ALR sulfhydryl oxidase, dose response, biochemical, H2O2 detection, luminescence, cherry-pick (AID 493248)
Bcl-2-related protein A1 = molecular target: T1, Bcl-2-related protein A1 (Mus musculus, UniProt Q07440); type: functional;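 also: confirmatory dose–response counterscreen on Bfl-1, used to check hits from a UBC13 polyubiquitin inhibitor campaign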
T1 sequence (Q07440 whole entry): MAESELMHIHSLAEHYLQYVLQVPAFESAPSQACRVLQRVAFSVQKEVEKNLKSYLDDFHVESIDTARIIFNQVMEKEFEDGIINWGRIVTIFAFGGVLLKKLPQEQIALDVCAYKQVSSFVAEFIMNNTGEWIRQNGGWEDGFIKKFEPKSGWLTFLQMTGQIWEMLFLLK

[22] = molecular target: T2, Ubiquitin-conjugating enzyme E2 N (Homo sapiens, UniProt P61088); type: functional
T2 sequence (P61088 whole entry): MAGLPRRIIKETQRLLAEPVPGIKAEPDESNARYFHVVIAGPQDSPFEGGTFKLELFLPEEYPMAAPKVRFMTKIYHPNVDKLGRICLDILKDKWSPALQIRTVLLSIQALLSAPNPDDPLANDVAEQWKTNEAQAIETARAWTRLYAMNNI

[23] = molecular target: T2, Ubiquitin-conjugating enzyme E2 N; type: functional; remark: listed apart in the source
[24] = system: Streptococcus sp. 'group A'; assay: growth inhibition of control SK(-) GAS strain, dose response, counter-screen for streptokinase expression inhibitor project, luminescence, kanamycin, BacTiterGlo, confirmation (AID 1900); type: functional, organism-based
[25] = A Cell Based Secondary Assay To Explore Cytotoxicity of Compounds that Sensitize Mycobacterium Tuberculosis to Beta-Lactam Antibiotics.; type: functional
Streptococcus = assay: Group A Streptococcus viability loss, dose response, counter-screen for streptokinase expression inhibitor project, luminescence, BacTiterGlo (AID 1915); type: functional, organism-based;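 also: potency for reduction of bacterial viability or growth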
Streptokinase A = molecular target: T3, Streptokinase A (Streptococcus pyogenes serotype M1, UniProt P10520); assay: S. pyogenes streptokinase expression inhibitors, potency, dose response, plasminogen activation absorbance, OD405 (AID 1914); type: functional, Streptococcus pyogenes M1 GAS;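 also: secreted streptokinase activity via plasminogen activation per viability signal from cell pellet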
T3 sequence (P10520 whole entry): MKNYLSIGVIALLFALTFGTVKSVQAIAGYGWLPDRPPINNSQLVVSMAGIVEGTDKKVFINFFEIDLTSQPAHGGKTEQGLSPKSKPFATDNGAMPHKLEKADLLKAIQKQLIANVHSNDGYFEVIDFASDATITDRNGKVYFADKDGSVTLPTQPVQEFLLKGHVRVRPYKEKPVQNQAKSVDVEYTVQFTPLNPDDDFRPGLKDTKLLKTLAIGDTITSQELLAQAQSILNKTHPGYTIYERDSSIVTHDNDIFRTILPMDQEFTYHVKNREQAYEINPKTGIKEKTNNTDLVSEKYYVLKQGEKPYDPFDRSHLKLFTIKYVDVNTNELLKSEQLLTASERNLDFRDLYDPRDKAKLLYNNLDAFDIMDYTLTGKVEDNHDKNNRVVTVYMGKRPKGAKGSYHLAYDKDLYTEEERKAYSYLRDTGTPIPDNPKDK

[26] = Luminescence Cell-Based Dose Retest to Confirm Inhibitors of Cancer Stem Cells. [Related pubchem assays (depositor defined):AID2717, AID2721]; type: functional; conditions: Homo sapiens

Sequence of Voltage-dependent T-type calcium channel subunit alpha-1H (O95180 whole entry): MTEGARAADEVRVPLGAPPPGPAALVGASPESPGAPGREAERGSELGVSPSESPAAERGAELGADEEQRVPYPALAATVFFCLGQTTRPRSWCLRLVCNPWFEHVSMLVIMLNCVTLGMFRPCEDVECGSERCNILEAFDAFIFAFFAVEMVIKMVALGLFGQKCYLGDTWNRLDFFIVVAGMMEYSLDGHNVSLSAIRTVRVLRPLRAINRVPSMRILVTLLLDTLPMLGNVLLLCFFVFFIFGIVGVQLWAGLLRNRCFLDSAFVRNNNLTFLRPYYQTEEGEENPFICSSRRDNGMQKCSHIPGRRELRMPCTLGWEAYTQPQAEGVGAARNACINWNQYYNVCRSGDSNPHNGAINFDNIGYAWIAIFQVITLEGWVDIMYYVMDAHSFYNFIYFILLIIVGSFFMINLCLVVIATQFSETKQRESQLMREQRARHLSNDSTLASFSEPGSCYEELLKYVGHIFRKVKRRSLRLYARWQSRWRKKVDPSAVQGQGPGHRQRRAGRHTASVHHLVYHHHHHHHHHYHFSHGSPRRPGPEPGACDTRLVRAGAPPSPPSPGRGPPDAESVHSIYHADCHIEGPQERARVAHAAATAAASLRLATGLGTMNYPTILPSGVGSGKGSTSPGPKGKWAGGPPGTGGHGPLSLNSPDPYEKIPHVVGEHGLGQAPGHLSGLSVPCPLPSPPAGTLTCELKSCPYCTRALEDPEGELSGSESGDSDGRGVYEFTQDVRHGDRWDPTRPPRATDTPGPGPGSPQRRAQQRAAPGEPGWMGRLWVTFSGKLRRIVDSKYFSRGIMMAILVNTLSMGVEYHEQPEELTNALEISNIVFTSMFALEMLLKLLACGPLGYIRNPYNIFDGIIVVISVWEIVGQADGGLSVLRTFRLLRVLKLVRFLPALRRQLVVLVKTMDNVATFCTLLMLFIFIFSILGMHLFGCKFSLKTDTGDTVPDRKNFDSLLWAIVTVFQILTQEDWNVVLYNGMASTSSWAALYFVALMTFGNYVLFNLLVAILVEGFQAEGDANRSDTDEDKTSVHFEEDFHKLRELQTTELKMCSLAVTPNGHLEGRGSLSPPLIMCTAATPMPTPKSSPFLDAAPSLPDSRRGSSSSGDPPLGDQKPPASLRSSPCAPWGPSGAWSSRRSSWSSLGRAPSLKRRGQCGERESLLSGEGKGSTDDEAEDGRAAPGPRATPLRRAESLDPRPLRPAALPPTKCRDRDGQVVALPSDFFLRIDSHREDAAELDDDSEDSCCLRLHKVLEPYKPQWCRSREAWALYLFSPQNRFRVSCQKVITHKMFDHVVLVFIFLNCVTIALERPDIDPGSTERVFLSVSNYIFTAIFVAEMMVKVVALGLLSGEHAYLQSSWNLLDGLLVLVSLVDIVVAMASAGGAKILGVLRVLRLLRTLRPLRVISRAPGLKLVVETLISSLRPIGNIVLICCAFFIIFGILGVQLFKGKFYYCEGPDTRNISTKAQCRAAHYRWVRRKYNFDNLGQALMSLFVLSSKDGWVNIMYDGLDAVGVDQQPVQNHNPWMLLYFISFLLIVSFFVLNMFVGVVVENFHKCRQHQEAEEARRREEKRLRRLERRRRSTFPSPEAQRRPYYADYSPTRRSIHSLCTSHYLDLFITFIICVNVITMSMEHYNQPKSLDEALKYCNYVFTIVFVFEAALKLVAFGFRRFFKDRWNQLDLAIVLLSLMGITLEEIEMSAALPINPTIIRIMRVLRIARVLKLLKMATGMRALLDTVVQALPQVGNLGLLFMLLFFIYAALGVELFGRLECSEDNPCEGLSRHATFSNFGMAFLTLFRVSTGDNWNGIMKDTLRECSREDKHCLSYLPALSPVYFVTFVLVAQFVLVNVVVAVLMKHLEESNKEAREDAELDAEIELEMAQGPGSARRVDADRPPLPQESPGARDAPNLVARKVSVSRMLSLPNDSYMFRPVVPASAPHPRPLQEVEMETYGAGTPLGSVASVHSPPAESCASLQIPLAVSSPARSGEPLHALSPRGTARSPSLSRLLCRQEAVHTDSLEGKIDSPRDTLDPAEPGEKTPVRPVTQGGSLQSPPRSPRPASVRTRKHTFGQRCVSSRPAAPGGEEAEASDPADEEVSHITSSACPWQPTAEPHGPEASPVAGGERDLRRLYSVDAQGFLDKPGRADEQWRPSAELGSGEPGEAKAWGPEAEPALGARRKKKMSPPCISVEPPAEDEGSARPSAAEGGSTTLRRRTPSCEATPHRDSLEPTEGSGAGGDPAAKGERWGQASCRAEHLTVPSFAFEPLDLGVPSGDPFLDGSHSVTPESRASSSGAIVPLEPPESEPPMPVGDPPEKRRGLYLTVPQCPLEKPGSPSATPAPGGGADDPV
Sequence of FAD-linked sulfhydryl oxidase ALR (P55789 whole entry): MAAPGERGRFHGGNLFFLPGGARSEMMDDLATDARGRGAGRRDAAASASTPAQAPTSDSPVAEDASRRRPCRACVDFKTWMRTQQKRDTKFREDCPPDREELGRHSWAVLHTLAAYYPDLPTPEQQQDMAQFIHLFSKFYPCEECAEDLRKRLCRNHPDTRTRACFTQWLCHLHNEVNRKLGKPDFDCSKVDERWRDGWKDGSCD
Sequence of Cyclin-dependent kinase 5/CDK5 activator 1 (Q00535 whole entry): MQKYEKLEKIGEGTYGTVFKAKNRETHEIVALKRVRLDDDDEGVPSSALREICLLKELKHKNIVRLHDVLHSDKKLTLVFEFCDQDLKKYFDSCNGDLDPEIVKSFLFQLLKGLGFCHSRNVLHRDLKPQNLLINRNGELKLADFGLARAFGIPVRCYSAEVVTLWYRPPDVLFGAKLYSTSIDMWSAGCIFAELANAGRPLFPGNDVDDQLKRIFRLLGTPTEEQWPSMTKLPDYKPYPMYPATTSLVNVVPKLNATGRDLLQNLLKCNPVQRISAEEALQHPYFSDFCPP
Sequence of Cyclin-dependent kinase 5/CDK5 activator 1 (Q15078 whole entry, further chain): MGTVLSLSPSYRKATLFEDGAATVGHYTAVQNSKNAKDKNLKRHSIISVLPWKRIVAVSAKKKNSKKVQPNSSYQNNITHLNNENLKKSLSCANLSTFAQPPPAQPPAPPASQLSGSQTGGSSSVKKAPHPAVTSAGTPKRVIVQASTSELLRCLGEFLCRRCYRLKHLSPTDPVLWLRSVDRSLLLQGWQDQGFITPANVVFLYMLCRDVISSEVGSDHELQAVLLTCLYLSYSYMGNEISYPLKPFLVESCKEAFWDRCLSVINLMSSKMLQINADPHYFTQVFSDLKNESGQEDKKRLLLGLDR

COc1cccc(-c2nc(CS(=O)(=O)CC(=O)N3CCc4ccccc4C3)c(C)o2)c1
EC50 [1]: 10.8 µM (active)

Cc1ccc2cc(C#N)c(SCc3nnc(-c4ccccc4[N+](=O)[O-])o3)nc2c1
EC50 [2]: 3.33 µM (active) | EC50 [3]: 4.3 µM (active)

CCOc1ccccc1C(=O)N1CCN(c2cccc(Cl)c2)CC1
EC50 [4]: 310 nM (active) | EC50 (cells [5]): 331 nM (active) | EC50 (BJ [6]): 1.44 µM (active) | EC50 (BJ [7]): 2.85 µM (inconclusive) | IC50 [8]: > 80 µM (inactive) | EC50 (BJ [9]): < 104 nM (active) | EC50 [10]: 2.65 µM (active) | EC50 [11]: < 100 nM (active) | EC50 [12]: < 100 nM (active) | EC50 [13]: 229 nM (active) | EC50 (BJ [14]): 2.66 µM (inconclusive)

CC(C)(C)OC(=O)NNc1c2ccccc2nc2ccccc12
IC50 (cells [15]): 22.2 µM (active) | CC50 [16]: > 20 µM (active) | CC50 [17]: 15.1 µM (active) | CC50 [18]: > 40 µM (active) | CC50 [19]: > 40 µM (active)

Cc1cc(-c2nsc(=O)o2)c(S(C)(=O)=O)s1
AC50 [20]: 29.3 µM (active) | AC50 [21]: 3.86 µM (active)

Cn1cccc1Cc1nnc(SCC(=O)Nc2ccc(Cl)cc2)n1-c1ccc(F)cc1
EC50 [1]: 1.32 µM (active)

O=C(NCCN1CCN(c2ccccc2)CC1)c1ccc2c(c1)[nH]c(=S)n1c3ccccc3nc21
IC50 (Bcl-2-related protein A1): > 20 µM (inactive) | IC50 [22]: > 20 µM (inactive) | IC50 [23]: 829 nM (active)

COc1cc2c(C(=O)N3CCN(c4ccccc4C)CC3)c(C)oc2cc1Br
EC50 [24]: 4.4 µM (active) | CC50 [25]: > 40 µM (active) | EC50 (Streptococcus): 36 µM (active) | EC50 (Streptokinase A): 79.8 µM (active)

COc1cc(OC)cc(-c2cc3ccc(OC)cc3cn2)c1
AC50 [26]: 3.32 µM (active) | CC50 [25]: 21.8 µM (active)
